Data published in patent publication US8163909B2, “Substituted hydroxyethyl amine compounds as beta-secretase modulators and methods of use” (Amgen Inc., priority 2007, dated 2012).
pIC50: −log10 of the molar value. Like-named read-outs stand apart in the source and are kept apart here.

Assays:
CYP3A = CYP3A (Homo sapiens, UniProt P08684); conditions: CYP3A4 inhibition; for pIC50: read-out: 3A4 IC50
[1] = target: Beta Secretase enzyme (BACE) (Homo sapiens, UniProt P56817); assay: In vitro enzymatic BACE FRET (fluorescence resonance energy transfer) assay; format: biochemical; conditions: for IC50: IC50's in uM;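 on all read-outs here: fluorescence read after 1 h with 50 nM quenched peptide substrate spanning the BACE cleavage site, in pH 4.2 acetate buffer containing 10% DMSO and nonionic detergent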
[2] = tested on: Aβ40 in conditioned medium of cells stably expressing Amyloid Precursor Protein (APP); assay: In vitro BACE cell-based assay (Aβ40 in conditioned medium, sandwich ELISA); conditions: for IC50: IC50's in uM;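 on all read-outs here: compounds added as a dilution series, secreted peptide quantified by europium time-resolved fluorescence readout, potency fitted from percent of control versus compound concentration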
[3] = Microsomal stability assay, rat liver microsomes;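 further: rat liver microsomes (0.25 mg/mL) with about 1 µM compound plus 1 mM NADPH, pH 7.4, 37 °C for 30 min, parent left measured by LC-MS/MS against 0 min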
CYP2D6 = CYP2D6 (Homo sapiens, UniProt P10635); assay: CYP2D6 inhibition assay (bufuralol, pooled human liver microsomes); conditions: for IC50: 2D6 IC50 (uM), CYP enzyme inhibition
[4] = Microsomal stability assay, human liver microsomes;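 further: pooled human liver microsomes at 0.25 mg/mL with 1 µM compound and NADPH at 37 °C, pH 7.4, for 30 min, unchanged parent quantified by LC-MS/MS against the 0 min sample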
Abeta peptide = assay: In vivo inhibition of beta-secretase (reduction of Abeta peptide in brain and cerebrospinal fluid); design: species or system rat; conditions: po, orally administered at 30 mg/kg dose, measured after 4 hours;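 further: abeta peptide quantified by sandwich ELISA with electrochemiluminescence readout in rat brain supernatant or CSF, relative to vehicle-dosed control animals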
CYP3A4 (CYP3A) = CYP3A4 (CYP3A) (Homo sapiens, UniProt P08684); assay: in vitro; conditions: microsomes, pH 7.4
[5] = human, microsomes, 1 μM, pH 7.4
[6] = rat, microsomes, 1 μM, pH 7.4
[7] = read-out: 2D6 IC50, CYP2D6 inhibition
[8] = BACE enzyme assay, read-out: BACE1 FRET assay
[9] = Rattus norvegicus, 4 h, rat cerebrospinal fluid, read-out: percent reduction of abeta peptide in the cerebrospinal fluid of the rat
[10] = Homo sapiens, HEK293, HEK cell-based assay, read-out: HEK cell assay
[11] = Rattus norvegicus, 4 h, rat brain, read-out: percent reduction of abeta peptide in the brain of the rat
[12] = Homo sapiens, HEK293, cell-based assay, HEK cells, read-out: HEK cell assay
[13] = 2D6 IC50, CYP enzyme inhibition

Sequence of CYP3A4 (CYP3A) (P08684 2-503): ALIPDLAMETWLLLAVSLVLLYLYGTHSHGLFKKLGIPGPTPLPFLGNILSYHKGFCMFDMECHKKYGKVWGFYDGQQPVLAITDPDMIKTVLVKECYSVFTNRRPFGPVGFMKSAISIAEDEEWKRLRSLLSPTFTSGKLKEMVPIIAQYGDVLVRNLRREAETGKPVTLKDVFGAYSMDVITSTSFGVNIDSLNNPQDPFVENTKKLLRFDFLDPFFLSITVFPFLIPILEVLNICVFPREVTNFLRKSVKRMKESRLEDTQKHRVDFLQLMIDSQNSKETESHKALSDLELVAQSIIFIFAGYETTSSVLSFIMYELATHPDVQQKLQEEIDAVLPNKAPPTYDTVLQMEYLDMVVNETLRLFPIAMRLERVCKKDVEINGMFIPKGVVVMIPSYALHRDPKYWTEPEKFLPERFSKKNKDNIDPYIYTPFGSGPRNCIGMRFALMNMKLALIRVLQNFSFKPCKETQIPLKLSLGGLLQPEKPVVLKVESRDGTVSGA
Sequence of CYP3A (P08684 2-503): as above
Sequence of CYP2D6 (P10635 whole entry): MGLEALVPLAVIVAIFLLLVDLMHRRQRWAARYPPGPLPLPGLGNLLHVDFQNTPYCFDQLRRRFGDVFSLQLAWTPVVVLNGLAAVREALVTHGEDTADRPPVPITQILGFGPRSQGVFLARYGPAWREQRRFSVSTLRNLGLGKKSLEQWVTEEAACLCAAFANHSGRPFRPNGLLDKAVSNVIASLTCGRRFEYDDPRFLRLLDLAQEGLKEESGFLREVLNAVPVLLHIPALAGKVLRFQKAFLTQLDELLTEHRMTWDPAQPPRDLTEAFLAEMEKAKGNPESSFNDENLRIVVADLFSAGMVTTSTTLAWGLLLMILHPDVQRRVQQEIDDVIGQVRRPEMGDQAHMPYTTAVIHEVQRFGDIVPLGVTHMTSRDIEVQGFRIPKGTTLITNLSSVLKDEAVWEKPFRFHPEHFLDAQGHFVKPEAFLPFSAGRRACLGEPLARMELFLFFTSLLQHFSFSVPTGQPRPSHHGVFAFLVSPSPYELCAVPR
Sequence of Beta Secretase enzyme (BACE) (P56817 46-501): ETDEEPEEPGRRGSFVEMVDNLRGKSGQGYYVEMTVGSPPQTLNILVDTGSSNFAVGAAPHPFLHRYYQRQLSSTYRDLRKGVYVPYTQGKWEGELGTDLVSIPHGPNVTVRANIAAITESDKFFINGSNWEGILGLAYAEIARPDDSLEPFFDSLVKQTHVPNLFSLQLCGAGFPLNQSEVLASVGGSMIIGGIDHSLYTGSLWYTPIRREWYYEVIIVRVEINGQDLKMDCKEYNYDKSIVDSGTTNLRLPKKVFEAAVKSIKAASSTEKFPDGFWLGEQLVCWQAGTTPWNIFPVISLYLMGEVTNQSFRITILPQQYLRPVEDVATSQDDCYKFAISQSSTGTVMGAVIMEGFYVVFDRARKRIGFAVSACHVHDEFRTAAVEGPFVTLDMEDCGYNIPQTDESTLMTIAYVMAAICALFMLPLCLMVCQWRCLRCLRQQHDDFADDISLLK

HLM [5] [µL/min/mg]	RLM [6] [µL/min/mg]	Structure (SMILES)	pIC50 (CYP3A4 (CYP3A))	inhibition in vivo at 30 mg/kg (Abeta peptide; [9]) [%]	IC50 [1, 8] [µM]	RLM ([3]; rat liver microsomal data) [µL/min/mg]	HLM ([4]; human liver microsomal data) [µL/min/mg]	further results
–	–	CC(=O)N[C@@H](Cc1cc(F)cc(-c2nccs2)c1)[C@H](O)CN[C@H]1CC2(CCC2)Oc2ncc(CC(C)(C)C)cc21 [Example 435, N-((2S,3R)-4-((S)-2,2-spirocyclobutyl-6-neopentyl-3,4-dihydro-2H-pyrano[2,3-b]pyridin-4-ylamino)-1-(3-fluoro-5-(thiazol-2-yl)phenyl)-3-hydroxybutan-2-yl)acetamide]	–	–	–	–	–	pIC50 (CYP3A): 5.85; pIC50 ([1]; read-out: BACE1 FRET assay (IC50)): 8.22; pIC50 ([2]; HEK cells, read-out: HEK cell assay (IC50)): 7.41; RLM ([3]; rat liver microsomes): 197 µL/min/mg; pIC50 (CYP2D6; [7]): 6.52; HLM ([4]; human liver microsomes): 125 µL/min/mg
–	–	CC(=O)N[C@@H](Cc1ccc(F)c(-c2cscn2)c1)[C@H](O)CN[C@H]1CC2(CCC2)Oc2ccc(CC(C)(C)C)cc21 [Example 436, N-((2S,3R)-4-((S)-2,2-spirocyclobutyl-6-neopentyl-3,4-dihydro-2H-chromen-4-ylamino)-1-(4-fluoro-3-(thiazol-4-yl)phenyl)-3-hydroxybutan-2-yl)acetamide]	–	–	–	–	–	pIC50 (CYP3A): 6.70; pIC50 ([1]; BACE enzyme assay IC50, read-out: BACE1 FRET assay): 8.30; pIC50 ([2]; HEK cell-based assay IC50, read-out: HEK cell assay): 7.62; RLM ([3]; rat liver microsomes): 78 µL/min/mg; pIC50 (CYP2D6; [7]): 5.66; HLM ([4]; human liver microsomes): 135 µL/min/mg
–	–	CO[C@H](C)C(=O)N[C@@H](Cc1cccc(-c2nccs2)c1)[C@H](O)CN[C@H]1CC2(CCC2)Oc2ncc(CC(C)(C)F)cc21 [Example 831, (2R)-N-((1S,2R)-3-(((4′S)-6′-(2-fluoro-2-methylpropyl)-3′,4′-dihydrospiro[cyclobutane-1,2′-pyrano[2,3-b]pyridin]-4′-yl)amino)-2-hydroxy-1-(3-(1,3-thiazol-2-yl)benzyl)propyl)-2-methoxypropanamide]	6.70	10 to 80	0.024	45	21	IC50 [2, 10]: 0.047 µM; IC50 (CYP2D6): 0.8 µM
–	–	CO[C@H](C)C(=O)N[C@@H](Cc1cccc(-c2ncco2)c1)[C@H](O)CN[C@H]1CC2(CCC2)Oc2ncc(CC(C)(C)C)cc21 [Example 836, (2R)-N-((1S,2R)-3-(((4′S)-6′-(2,2-dimethylpropyl)-3′,4′-dihydrospiro[cyclobutane-1,2′-pyrano[2,3-b]pyridin]-4′-yl)amino)-2-hydroxy-1-(3-(1,3-oxazol-2-yl)benzyl)propyl)-2-methoxypropanamide]	6.70	10 to 80	0.013	56	56	IC50 [2, 10]: 0.015 µM; IC50 (CYP2D6): 0.7 µM
–	–	C#Cc1cc(C[C@H](NC(=O)COCC)[C@H](O)CN[C@H]2CC3(CCC3)Oc3ncc(CC(C)(C)C)cc32)ccc1F [Example 837]	7.00	10 to 80	0.007	72	29	IC50 [2, 10]: 0.023 µM; IC50 (CYP2D6): 1.6 µM
–	–	C#Cc1cccc(C[C@H](NC(=O)C(OC)OC)[C@H](O)CN[C@H]2CC3(CCC3)Oc3ncc(CC(C)(C)C)cc32)c1 [Example 844]	7.00	≥ 50	0.005	44	32	IC50 [2, 10]: 0.006 µM; IC50 (CYP2D6): 1.5 µM
–	–	CNc1nc(CC(C)(C)C)cc2c1OC1(CCC1)C[C@@H]2NC[C@@H](O)[C@H](Cc1cc(F)cc(-c2nccs2)c1)NC(=O)COC [Example 847]	6.40	≥ 50	0.044	201	102	inhibition in vivo at 30 mg/kg (Abeta peptide; [11]): 5 to 80%; IC50 [2, 12]: 0.01 µM; pIC50 (CYP2D6; [13]): 6.10
–	–	C#Cc1cccc(C[C@H](NC(=O)[C@@H](C)OC)[C@H](O)CN[C@H]2CC3(CCC3)Oc3ncc(CC(C)(C)C)cc32)c1 [Example 849, (2R)-N-((1S,2R)-3-(((4′S)-6′-(2,2-dimethylpropyl)-3′,4′-dihydrospiro[cyclobutane-1,2′-pyrano[2,3-b]pyridin]-4′-yl)amino)-1-(3-ethynylbenzyl)-2-hydroxypropyl)-2-methoxypropanamide]	7.30	≥ 50	0.005	43	18	IC50 [2, 12]: 0.008 µM; pIC50 (CYP2D6; [13]): 5.49
–	–	CC(C)(C)Cc1cnc2c(c1)[C@@H](NC[C@@H](O)[C@H](Cc1cc(F)cc(-c3nccs3)c1)NC(=O)C1CCC1)CC1(CCC1)O2 [Example 875]	6.70	–	0.006	81	65	inhibition in vivo at 30 mg/kg (Abeta peptide; [11]): 5 to 80%; IC50 [2, 12]: 0.02 µM; pIC50 (CYP2D6; [13]): 6.52
–	–	CC(C)(C)Cc1cnc2c(c1)[C@@H](NC[C@@H](O)[C@H](Cc1cc(F)cc(-c3nccs3)c1)NC(=O)[C@@H]1CCCO1)CC1(CCC1)O2 [Example 879]	6.70	–	0.006	77	96	inhibition in vivo at 30 mg/kg (Abeta peptide; [11]): 5 to 80%; IC50 [2, 12]: 0.007 µM; IC50 at 10 min (CYP2D6; human, pooled human liver microsomes, pH 7.4, probe bufuralol, about 5 μM, 2D6 IC50, CYP enzyme inhibition): 600 nM
–	–	C#Cc1ccc(F)c(C[C@H](NC(=O)[C@@H](C)OC)[C@H](O)CN[C@H]2CC3(CCC3)Oc3ncc(CC(C)(C)C)cc32)c1 [Example 902]	7.00	10 to 80	0.006	70	36	IC50 [2, 12]: 0.026 µM; pIC50 (CYP2D6; [13]): 6.05
40	112	COCC(=O)N[C@@H](Cc1cccc(-c2nccs2)c1)[C@H](O)CN[C@H]1C[C@@]2(CCOC2)Oc2ncc(CC(C)(C)C)cc21 [compound 814, N-((1S,2R)-3-(((3S,4′S)-6′-(2,2-dimethylpropyl)-3′,4,4′,5-tetrahydrospiro[furan-3,2′-pyrano[2,3-b]pyridin]-4′-yl)amino)-2-hydroxy-1-(3-(1,3-thiazol-2-yl)benzyl)propyl)-2-methoxyacetamide]	–	–	–	–	–	–
54	101	COCC(=O)N[C@@H](Cc1cccc(-c2nccs2)c1)[C@H](O)CN[C@H]1C[C@]2(CCOC2)Oc2ncc(CC(C)(C)C)cc21 [compound 822]	–	–	–	–	–	–
57	171	COCC(=O)N[C@@H](Cc1cccc(-c2nccs2)c1)[C@H](O)CN[C@H]1C[C@@]2(CCOC2)Oc2ncc(CC(C)(C)C)cc21 [compound 823, N-((1S,2R)-3-(((3S,4′S)-6′-(2,2-dimethylpropyl)-3′,4,4′,5-tetrahydrospiro[furan-3,2′-pyrano[2,3-b]pyridin]-4′-yl)amino)-2-hydroxy-1-(3-(1,3-thiazol-2-yl)benzyl)propyl)-2-methoxyacetamide]	–	–	–	–	–	–
21	28	C#Cc1cccc(C[C@H](NC(=O)COC)[C@H](O)CN[C@H]2C[C@]3(CCOC3)Oc3ncc(CC(C)(C)C)cc32)c1 [compound 824]	–	–	–	–	–	–
64	152	COCC(=O)N[C@@H](Cc1cccc(-c2nccs2)c1)[C@H](O)CN[C@H]1C[C@]2(CCOC2)Oc2ncc(CC(C)(C)C)cc21 [compound 845]	–	–	–	–	–	–
82	128	COCC(=O)N[C@@H](Cc1cccc(-c2nccs2)c1)[C@H](O)CN[C@H]1C[C@@]2(CCOC2)Oc2ncc(CC(C)(C)C)cc21 [compound 846, N-((1S,2R)-3-(((3S,4′S)-6′-(2,2-dimethylpropyl)-3′,4,4′,5-tetrahydrospiro[furan-3,2′-pyrano[2,3-b]pyridin]-4′-yl)amino)-2-hydroxy-1-(3-(1,3-thiazol-2-yl)benzyl)propyl)-2-methoxyacetamide]	–	–	–	–	–	–
14	86	C#Cc1cccc(C[C@H](NC(=O)COC)[C@H](O)CN[C@H]2C[C@]3(CCOC3)Oc3ncc(CC(C)(C)C)cc32)c1 [compound 868]	–	–	–	–	–	–

Structure (SMILES)	HLM [5] [µL/min/mg]	RLM [6] [µL/min/mg]	pIC50 (CYP3A4 (CYP3A))	inhibition in vivo at 30 mg/kg (Abeta peptide; [9]) [%]	IC50 [1, 8] [µM]	RLM ([3]; rat liver microsomal data) [µL/min/mg]	HLM ([4]; human liver microsomal data) [µL/min/mg]	further results
COCC(=O)N[C@@H](Cc1ccc(F)cc1)[C@H](O)CN[C@H]1CC2(CCC2)Oc2c1cc(CC(C)(C)C)nc2-c1c[nH]cn1 [Example 529]	37	40	7.00	–	–	–	–	inhibition in vivo at 30 mg/kg (Abeta peptide; rat cerebrospinal fluid, read-out: percent reduction of abeta peptide in the cerebrospinal fluid of the rat): 10 to 80%; pIC50 [1, 8]: 7.64; pIC50 ([2]; Homo sapiens, HEK293, HEK cells, read-out: HEK cell assay): 7.92; IC50 (CYP2D6): 0.7 µM
COCC(=O)N[C@@H](Cc1cc(F)cc(F)c1)[C@H](O)CN[C@H]1CC2(CCC2)Oc2c1cc([C@H]1CC1(C)C)nc2-c1ccncc1 [compound 678]	23	79	–	–	–	–	–	–
COCC(=O)N[C@@H](Cc1cc(F)cc(F)c1)[C@H](O)CN[C@H]1CC2(CCC2)Oc2c1cc([C@H]1CC1(C)C)nc2-c1ccncc1 [compound 703]	32	118	–	–	–	–	–	3A4 IC50 (CYP3A): 200 nM
